The source of these data is patent publication US20060121072A1, “Topical parasiticide formulations and methods of treatment” (priority 2002, published 2006).

Data set [1] is described as follows: Plasma pharmacokinetics of ivermectin in cattle. The data set is classed as in vivo. The procedure: (§1) Formulations according to the invention were tested for their efficacy in delivering benzimidazoles and macrocyclic lactones to the bloodstream of mammals (cattle), and compared to the efficacy in delivering these agents to animals' bloodstreams by standard commercially available drench (Fasinex 120®), and an experimental solvent-based triclabendazole/ivermectin pour-on formulation.
Cattle (typically Hereford or Hereford cross) with either natural or artificially infected burdens of fluke and nematodes were used in pen and field trials. Within a given trial animals were allotted into treatment groups, each having similar mean weights and fluke and nematode burdens. Experimental treatments were applied along the backline using a commercially available backliner gun fitted with a plastic shroud to ensure correct delivery of the formulation according to the protocol.
(§2) Blood samples (plasma) were taken by venipuncture of the jugular vein at the designated time intervals. Analysis for triclabendazole and ivermectin residues in the plasma was carried out and reported by commercial contract laboratories.
Ivermectin was extracted from the plasma using acetonitrile and concentrated by evaporation. The sample was cleaned up by solid phase extraction (SPE) chromatography and the ivermectin determined as the N-methyl imidazole derivative using reverse phase HPLC with fluorescence detection.

A short description of data set [2]: Plasma pharmacokinetics of triclabendazole (with sulphone and sulphoxide metabolites) in cattle. The data set is classed as in vivo. The procedure:
as §1
Cattle (typically Hereford or Hereford cross) with either natural or artificially infected burdens of fluke and nematodes were used in pen and field trials. […] Experimental treatments were applied along the backline using a commercially available backliner gun fitted with a plastic shroud to ensure correct delivery of the formulation according to the protocol.
as §2
The triclabendazole was extracted from the plasma using ethyl acetate. Following concentration and SPE clean up, the triclabendazole and its sulphone and sulphoxide metabolites were analysed by reverse phase HPLC using UV detection.

[3] abbreviates: Table 2 pour-on 90 g/L triclabendazole + 10.0 g/L ivermectin, 1 mL/10 kg, 1.0 mg/kg.
[4] abbreviates: Table 2 pour-on 120 g/L triclabendazole + 5.0 g/L ivermectin, 1 mL/10 kg, 0.5 mg/kg.
Setting [5] is: Table 2 pour-on 180 g/L triclabendazole + 7.5 g/L ivermectin, 1 mL/10 kg, 0.75 mg/kg.
Setting [6] is: Table 3 pour-on 240 g/L triclabendazole + 3.33 g/L ivermectin (triethanolamine), 1 ml/6.67 kg, 0.5 mg/kg.
[7] abbreviates: Table 3 pour-on 240 g/L triclabendazole + 5 g/L ivermectin (sodium dodecyl sulphate), 1 ml/10 kg, 0.5 mg/kg.
Where [8] appears, read: Table 3 pour-on 240 g/L triclabendazole + 10 g/L ivermectin (triethanolamine), 1 ml/20 kg, 0.5 mg/kg.
[9] abbreviates: Table 4 pour-on 180 g/L triclabendazole + 7.5 g/L ivermectin, 1 mL/15 kg, mean treatment area 110 cm^2, 0.5 mg/kg.
The mark [10] stands for this setting: Table 4 pour-on 240 g/L triclabendazole + 10.0 g/L ivermectin, 1 mL/20 kg, mean treatment area 76 cm^2, 0.5 mg/kg.

Regarding 22,23-dihydroavermectin B1 [Ivermectin], the “Ivermectin AUC” value in data set [1] (setting [3]) came out at 88 ng·days/mL; in data set [1] (setting [4]), 52 ng·days/mL; in data set [1] (setting [5]), 79 ng·days/mL; in data set [1] (setting [6]) it was 82 ng·days/mL; in data set [1] (setting [7]), 84 ng·days/mL; in data set [1] (setting [8]) it was 104 ng·days/mL. The “Ivermectin AUC” value in data set [1] (setting [9]) amounted to 30 ng·days/mL; in data set [1] (setting [10]), 43 ng·days/mL. Further, the “Ivermectin Mean plasma” value in data set [1] (setting [3]) was found to be 4.4 ng/mL; in data set [1] (setting [4]) it was 2.5 ng/mL; in data set [1] (setting [5]) it was 4.1 ng/mL. The “Ivermectin Plasma Cmax” value in data set [1] (setting [3]) stood at 8 ng/mL; in data set [1] (setting [4]), 8 ng/mL; in data set [1] (setting [5]) it was 13 ng/mL; in data set [1] (setting [6]) it was 7.5 ng/mL; in data set [1] (setting [7]), 9.5 ng/mL; in data set [1] (setting [8]), 10.4 ng/mL. In addition, the “Ivermectin Tmax” value in data set [1] (setting [3]) worked out at 120 h; in data set [1] (setting [4]), 120 h; in data set [1] (setting [5]) it was 120 h; in data set [1] (setting [6]) it was 170 h; in data set [1] (setting [7]), 120 h; in data set [1] (setting [8]) it was 170 h. Also, the “Ivermectin Mean plasma conc^n” value in data set [1] (setting [9]) is 1.7 ng/mL; in data set [1] (setting [10]), 2.2 ng/mL.

For `CSc1nc2cc(Cl)c(Oc3cccc(Cl)c3Cl)cc2[nH]1` [Triclabendazole, 5-chloro-6-(2,3-dichlorophenoxy)-2-(methylthio)-benzimidazole], the “Triclabendazole AUC” value in data set [2] (Table 2 pour-on 90 g/L triclabendazole + 10.0 g/L ivermectin, 1 mL/10 kg, 9.0 mg/kg) stood at 72 µg·days/mL; in data set [2] (Table 2 pour-on 120 g/L triclabendazole + 5.0 g/L ivermectin, 1 mL/10 kg, 12 mg/kg), 85 µg·days/mL; in data set [2] (Table 2 pour-on 180 g/L triclabendazole + 7.5 g/L ivermectin, 1 mL/10 kg, 18 mg/kg), 139 µg·days/mL; in data set [2] (Table 3 pour-on 240 g/L triclabendazole + 3.33 g/L ivermectin (triethanolamine), 1 ml/6.67 kg, 36 mg/kg) it was 177 µg·days/mL; in data set [2] (Table 3 pour-on 240 g/L triclabendazole + 5 g/L ivermectin (sodium dodecyl sulphate), 1 ml/10 kg, 24 mg/kg) it was 129 µg·days/mL; in data set [2] (Table 3 pour-on 240 g/L triclabendazole + 10 g/L ivermectin (triethanolamine), 1 ml/20 kg, 12 mg/kg), 73 µg·days/mL. Also, the “Triclabendazole AUC” value in data set [2] (Table 4 pour-on 180 g/L triclabendazole + 7.5 g/L ivermectin, 1 mL/15 kg, mean treatment area 110 cm^2, 12.0 mg/kg) is 65 µg·days/mL; in data set [2] (Table 4 pour-on 240 g/L triclabendazole + 10.0 g/L ivermectin, 1 mL/20 kg, mean treatment area 76 cm^2, 12.0 mg/kg), 170 µg·days/mL.
